The record followed here is patent publication US6822146B2, “Sulfonylurea-tolerant sunflower line M7” (priority 2000, dated 2004).

One data set deals with Orobanche cumana. The data set can be described thus: Test D control of Orobanche cumana in resistant sunflower. It is filed as in vivo. The method, then: The purpose of this test was to evaluate the efficacy of tribenuron-methyl to control Orobanche cumana before and after crop emergence from the soil. Various herbicide treatments were evaluated using six replications of each treatment. Treatments investigated the following modes of application: seed coating, pre-emergence soil incorporation, bare-ground pre-emergence broadcast application, and post-emergence broadcast application. All herbicide treatments used formulated herbicide compositions.
For seed coating treatments, 3 mg of Orobanche cumana seeds were added to each pot containing a growing mixture of 60% dry loamy soil, 20% sand and 20% of peat, the growing mixture having an organic matter content of 4.2% and a pH of 8.05. The pots were placed in plastic trays and watered to the extent of 25% of soil weight. Pots were kept in a greenhouse for 8 to 10 days at about 24° C. during the day and 20° C. at night. Eight seeds of BC4-M5M12 sunflower resistant mutant were sown manually in the pots contaminated with Orobanche, at the end of the incubation period of the parasitic weed seeds.
Seeds were first coated using a table-top laboratory fluid bed equipped with a coating device (“Strea 1 Aerocoater” made by Niro Aeromatic, Haupstrasse 145, CH-4416 Bubendorf, Switzerland) and a coating solution containing about 23% Sepiret 8330® (coating composition sold by Seppic, 75 quai d'Orsay Paris 75321 cedex 07 France) and 77% water at the rate of 3 L/100 Kg of seeds. After coating, the seeds were dried in a fluid bed drier at 35° C. […] The coated seeds were then dried at ambient temperature and stored until sowing.
The soil was then thoroughly mixed by hand and dispensed into the pots. The quantities of tribenuron-methyl used in these treatments are expressed in g a.i./ha based on the soil volume and pot dimensions. The quantities applied were 11.25 and 22.5 g a.i./ha.
The effect of the various treatments was evaluated 35 days after sowing. The sunflower roots were cleaned by washing in water, and the presence of Orobanche nodules was determined visually and by weighing root wet mass in comparison to check plants free of Orobanche infestation. […] The nodules caused by Orobanche increased root weight, and a correlation (r=0.7) was found between visual scores and weight measurements. Thus the weighing technique could be used to corroborate visual efficacy scorings. Orobanche emergence was also scored but found to be less useful to evaluate treatment efficiency at the evaluation timing of this test.

For data set [1], the system named is homozygous progeny of the three mutant sources. Format: in vivo, sunflower. The settings on record: Test B application rates, post-emergence. Put shortly:
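Formulated ALS-inhibiting herbicides sprayed post-emergence at the 4-leaf stage on homozygous mutant sunflower inbreds (M5 maintainers and BC4 male-sterile back-crosses) in the greenhouse, at rates commonly used in registered crops. Two replicates; crop injury rated as % phytotoxicity, 0% meaning no injury.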

Regarding `COC(=O)c1ccccc1S(=O)(=O)NC(=O)N(C)c1nc(C)nc(OC)n1` [Tribenuron-methyl, tribenuron-methyl], the Control is listed as 63% in the data set with Orobanche cumana (post-emergence broadcast spray 2.25 g a.i./ha); 78% with Orobanche cumana (pre-emergence broadcast spray 11.25 g a.i./ha + post-emergence broadcast spray 11.25 g a.i./ha); 40% in the data set on Orobanche cumana (pre-emergence broadcast spray 22.5 g a.i./ha); 55% in the data set on Orobanche cumana (pre-emergence soil incorporation 11.25 g a.i./ha); 72% in the data set with Orobanche cumana (pre-emergence soil incorporation 22.5 g a.i./ha); 63% in the data set with Orobanche cumana (seed coating 0.00001 mg a.i./g + post-emergence broadcast spray 2.25 g a.i./ha). Also, the Control was 70% in the data set with Orobanche cumana (seed coating 0.00001 mg a.i./g + post-emergence broadcast spray 11.25 g a.i./ha); 8% with Orobanche cumana (seed coating 0.00001 mg a.i./g, host BC4-M5M12, 35 days after sowing); 85% in the data set with Orobanche cumana (seed coating 0.1 mg a.i./g + post-emergence broadcast spray 2.25 g a.i./ha); 80% in the data set on Orobanche cumana (seed coating 0.1 mg a.i./g + post-emergence broadcast spray 11.25 g a.i./ha); 37% with Orobanche cumana (seed coating 0.1 mg a.i./g, host BC4-M5M12, 35 days after sowing); 82% with Orobanche cumana (seed coating 10 mg a.i./g + post-emergence broadcast spray 2.25 g a.i./ha). Moreover, the Control in the data set on Orobanche cumana (seed coating 10 mg a.i./g + post-emergence broadcast spray 11.25 g a.i./ha) worked out at 89%. The “tolerance of the mutants” value in data set [1] was “good tolerance”.
